# Counter-ions that a name gives are not always drawn.
# Experiments:
# Type in all cases: physicochemical
# [1] = Flowability, Jenike and Johanson Sifting Segregation tester (time for 200 g to fall through hopper orifice); conditions: 200 g material, hydrochloride
# Description: The flowability of the equant-shaped crystals of memantine was measured using a Jenike and Johanson […] Segregation tester (Jenike and Johanson, Tyngsboro, Mass.). The time taken for 200 g of material to fall through the circular orifice of the hopper was measured. Two different hoppers were used: a shallow angle cone (Hopper A, 35° from horizontal) and a steep angle cone (Hopper B, 75° from horizontal). […] See, ASTM Standard D6941-03, and A. Alexander et al., Pharmaceutical Technology, Yearbook 2000, pp. 6-21.
# [2] = Angle of repose, Hosakawa Micron powder tester; conditions: hydrochloride
# Description: For pharmaceutical powders, a lower angle of repose value indicates better flow characteristics. The angle of repose was measured using a Hosakawa Micron powder tester, Model PT-N (Hosokawa Micron Powder systems, Summit, N.J.) using the instructions provided by the vendor. Also see Pharmaceutical Dosage Forms, Tablets, Volume 1, Herbert A. Lieberman, Leon Lachman, Joseph B. Schwartz, 1989, 2nd Ed.
# [3] = Bulk density and tap density, Varian Tapped Density tester; conditions: hydrochloride
# Description: Bulk Density and Apparent Density after Tamping (Tap Density)
# The bulk density and apparent density were measured using a Varian Tapped Density tester (Varian Inc.,) using the instructions provided by the vendor. Also see USP 29 (Tap-Bulk-Density).
# [4] = Particle size distribution by laser diffraction; conditions: equant: Helos BF with Rodos; needle: Mastersizer 2000; hydrochloride
# Description: The particle size distribution (average d90, d50 and d10 values) of the equant-shaped crystals of memantine was measured by Laser Diffraction technique using a Helos BF with Rodos instrument (Sympatec Inc, Lawrenceville, N.J.). The particle size distribution of the needle-shaped crystals of memantine was measured using a Mastersizer 2000 instrument (Malvern Instruments Limited, Worcestershire, UK).
# [5] = Aspect ratio by scanning electron microscopy; conditions: ratio of maximum length to minimum width; hydrochloride
# From the text: The aspect ratio refers to the ratio of the maximum length of a crystal to its minimum width. At an aspect ratio of 1, a crystal has an isometric crystal habit. With the aspect ratio decreasing below 1, the crystal habit becomes more and more plate-like. In contrast, when the aspect ratio increases more and more above 1, the crystal approaches a needle-like crystal habit. In accordance with the present invention, cubic-shaped crystals of memantine hydrochloride have an aspect ratio of preferably below about 5, such as, below about 3 (3.0), e.g., below about 2 (2.0). The lower limit of the aspect ratio is not critical. The aspect ratio is determined by means of scanning electron microscopy (SEM). The sample is spread onto a pure aluminum support and subsequently sputter-coated with a thin layer of Pd/Au (thickness in the nanometer range; sputter coater SCD 030 (Balzers)). Using a JSM 6400 Scanning Electron Microscope (JEOL, Japan) at an acceleration voltage of 20 keV and a working distance of 15 mm, SEM images are taken at 150-fold magnification. Electronic filtering and thresholding is used to improve the separation of particles in binary images from the background. For image analysis, ANALYSIS software version 5.0 (SIS, Muenster, Germany) is used. […]
# [6] = Hopper A (shallow angle cone, 35° from horizontal)
# [7] = Hopper B (steep angle cone, 75° from horizontal)
Structure (SMILES),"Flowability [1, 6]","Flowability ([1]; Hopper A (shallow angle cone, 35° from horizontal), listed as equant-shaped crystals)","Flowability [1, 7]","Flowability ([1]; Hopper B (steep angle cone, 75° from horizontal), listed as equant-shaped crystals)",Angle of Repose [2] [°],Bulk Density [3] [g/cc],Compressibility Index [3],Tap Density [3] [g/cc],PSD d10 [4] [μm],PSD d50 [4] [μm],PSD d90 [4] [μm],Aspect Ratio [5],"Flowability ([1]; Hopper A (shallow angle cone, 35° from horizontal), listed as needle-shaped crystals)","Flowability ([1]; Hopper B (steep angle cone, 75° from horizontal), listed as needle-shaped crystals)"
"CC12CC3CC(C)(C1)CC(N)(C3)C2 [Equant-shaped crystals of Memantine HCl, memantine hydrochloride]",38.3 g/s,about 38 g/s,13.6 g/s,about 14 g/s,43.1,0.51,16,0.61,10,205,376,1.6,,
"CC12CC3CC(C)(C1)CC(N)(C3)C2 [Needle-shaped crystals of Memantine HCl, memantine hydrochloride]",Does not flow,,Does not flow,,66.2,0.30,40,0.50,18.8,113.8,1229.4,11.4,do not flow,do not flow
